Where two headings read alike, the source gives them in different places.
Legend:
[1] = target: GSK3β(h) (Homo sapiens, UniProt P49841); assay: GSK3β radiometric kinase assay (33P-ATP, phospho GS2 peptide); type: biochemical; details: read-out: IC50 GSK3β (enzyme assay)
Experimental: GSK3β(h) is incubated with 8 mM MOPS pH 7,0, 0,2 mM EDTA, 20 μM
[…](p)EDEEE (phosphor GS2 peptide), 10 mM Mg-acetate and [gamma-33P-ATP](specific activity approx. 500 cpm/Pmol, concentration as required). The reaction is initiated by the addition of the MgATP. After incubation for 40 minutes at the room temperature, the Reaction is stopped by the addition of 3% phosphoric acid solution. 10 μL of reaction is then spotted onto a P30 filtermat and washed three times for 5 minutes in 50 mM phosphoric acid and once in methanol prior to drying and scintillation counting.

[2] = target: T1, GCN2 (Homo sapiens, UniProt Q9P2K8); assay: GCN2 enzyme assay (TR-FRET Lanthascreen, GFP-eIF2alpha phosphorylation); type: biochemical; details: 10 μM ATP, 80 nM GFP-eIF2a, 30 nM GCN2
How it was run: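 Phosphorylation of GFP-eIF2alpha (80 nM) by GCN2 run at room temperature with 10 μM ATP. After EDTA quench, product quantified by Lanthascreen TR-FRET (antibody–GFP complex, 340 nm excitation).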
Target sequence in this assay (Q9P2K8 whole entry, species assumed): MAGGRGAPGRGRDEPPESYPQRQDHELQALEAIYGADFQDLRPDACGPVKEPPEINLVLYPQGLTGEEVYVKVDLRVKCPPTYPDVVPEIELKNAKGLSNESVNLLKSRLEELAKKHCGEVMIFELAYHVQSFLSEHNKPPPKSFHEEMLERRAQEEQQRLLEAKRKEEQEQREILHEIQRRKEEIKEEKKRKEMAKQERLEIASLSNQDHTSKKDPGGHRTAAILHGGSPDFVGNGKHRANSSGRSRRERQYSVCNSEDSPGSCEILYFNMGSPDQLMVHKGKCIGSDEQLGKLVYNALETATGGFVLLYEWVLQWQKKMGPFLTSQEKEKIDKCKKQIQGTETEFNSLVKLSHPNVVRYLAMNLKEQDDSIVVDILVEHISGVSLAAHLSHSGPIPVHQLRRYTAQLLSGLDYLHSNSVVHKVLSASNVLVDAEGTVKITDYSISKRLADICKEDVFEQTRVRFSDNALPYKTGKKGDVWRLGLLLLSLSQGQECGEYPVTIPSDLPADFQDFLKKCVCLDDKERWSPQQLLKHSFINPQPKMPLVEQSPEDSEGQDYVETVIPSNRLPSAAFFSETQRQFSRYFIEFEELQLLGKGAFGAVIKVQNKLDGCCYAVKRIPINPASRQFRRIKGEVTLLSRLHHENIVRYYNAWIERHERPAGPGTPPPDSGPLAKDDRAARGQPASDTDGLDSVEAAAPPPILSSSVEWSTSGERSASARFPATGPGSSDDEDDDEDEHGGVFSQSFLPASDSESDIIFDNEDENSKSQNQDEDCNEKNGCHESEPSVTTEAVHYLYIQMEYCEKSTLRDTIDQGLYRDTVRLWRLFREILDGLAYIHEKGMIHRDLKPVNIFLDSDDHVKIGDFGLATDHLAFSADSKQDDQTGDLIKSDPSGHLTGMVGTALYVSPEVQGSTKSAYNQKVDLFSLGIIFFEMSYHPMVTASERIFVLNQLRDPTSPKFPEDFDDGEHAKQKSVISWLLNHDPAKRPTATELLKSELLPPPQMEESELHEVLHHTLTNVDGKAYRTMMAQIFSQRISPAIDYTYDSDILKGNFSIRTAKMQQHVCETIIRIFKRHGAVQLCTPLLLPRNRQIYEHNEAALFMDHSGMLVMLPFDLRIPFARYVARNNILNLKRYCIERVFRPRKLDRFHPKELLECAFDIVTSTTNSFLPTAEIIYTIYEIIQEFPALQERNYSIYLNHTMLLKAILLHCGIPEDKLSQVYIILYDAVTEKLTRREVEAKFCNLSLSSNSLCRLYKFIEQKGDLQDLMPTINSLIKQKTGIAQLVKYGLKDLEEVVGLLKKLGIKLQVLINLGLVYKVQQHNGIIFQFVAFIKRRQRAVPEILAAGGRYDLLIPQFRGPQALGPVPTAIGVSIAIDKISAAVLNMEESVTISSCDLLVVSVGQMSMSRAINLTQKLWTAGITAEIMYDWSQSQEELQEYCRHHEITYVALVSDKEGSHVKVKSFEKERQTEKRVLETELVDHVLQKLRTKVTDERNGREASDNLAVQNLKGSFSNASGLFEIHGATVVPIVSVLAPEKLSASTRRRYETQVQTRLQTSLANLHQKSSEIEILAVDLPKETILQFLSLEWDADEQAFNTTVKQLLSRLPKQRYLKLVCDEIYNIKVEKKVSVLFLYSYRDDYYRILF

[3] = target: GSK3α(h) (Homo sapiens, UniProt P49840); assay: GSK3α radiometric kinase assay (33P-ATP, phospho GS2 peptide); type: biochemical; details: read-out: IC50 GSK3α (enzyme assay)
Sequence of GSK3α(h) (P49840 whole entry): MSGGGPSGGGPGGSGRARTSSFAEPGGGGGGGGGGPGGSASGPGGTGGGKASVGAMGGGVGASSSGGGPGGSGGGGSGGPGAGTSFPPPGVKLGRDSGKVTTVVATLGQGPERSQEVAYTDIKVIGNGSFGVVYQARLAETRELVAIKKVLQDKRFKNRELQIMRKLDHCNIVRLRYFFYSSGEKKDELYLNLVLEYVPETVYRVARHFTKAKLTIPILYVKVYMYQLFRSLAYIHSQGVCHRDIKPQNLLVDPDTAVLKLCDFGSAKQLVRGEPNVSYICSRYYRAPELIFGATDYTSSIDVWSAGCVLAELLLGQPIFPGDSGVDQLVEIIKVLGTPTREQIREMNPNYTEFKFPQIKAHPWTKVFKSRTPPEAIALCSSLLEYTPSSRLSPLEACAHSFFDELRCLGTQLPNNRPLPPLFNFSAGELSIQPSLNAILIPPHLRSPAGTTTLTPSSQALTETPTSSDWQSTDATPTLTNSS
How it was run: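 Human GSK3α incubated with 20 μM phospho-GS2 peptide in 8 mM MOPS pH 7,0, 10 mM Mg-acetate and [γ-33P]ATP (concentration as required), started with MgATP. After 40 minutes at room temperature, stopped with phosphoric acid; 33P incorporation measured by filtermat spotting and scintillation counting.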

[4] = target: T1, GCN2; assay: Cellular assay of GCN2 activity (phospho-eIF2alpha immunocytochemistry after tryptophanol); type: cell-based; set-up: endogenous in cells; host or cells: U2OS; details: Human U2OS cells, 2 h compound, 600 μM tryptophanol 30 min
Experimental: Cellular Assay for the Determination of Compound Activities
Human U2OS cells (2000 cells/well) are seeded into 384-well plates and incubated for 20 hours.
The next day, the cells are treated with the test compounds and incubated for 2 hours. Then, tryptophanol, at a final concentration of 600 μM, is added to the cells and those are incubated for 30 minutes.
The analysis of cellular GCN2 activities is done by immunocytochemistry.
Briefly, cells are fixated on the well surfaces by formaldehyde and permeabilised with Triton X-100.
The analysis and quantification of phosphorylated GCN2 is done by scanning the plates in the Acumen Explorer system (TTPLabtech). The obtained data are normalised against the untreated control wells (DMSO only) and expressed as % effect values. The determination of IC50 values is done by using the Graph Pad Prism software.
Target sequence in this assay (Q9P2K8 whole entry): as the sequence (Q9P2K8 whole entry, species assumed) above

Sequence of GSK3β(h) (P49841 whole entry): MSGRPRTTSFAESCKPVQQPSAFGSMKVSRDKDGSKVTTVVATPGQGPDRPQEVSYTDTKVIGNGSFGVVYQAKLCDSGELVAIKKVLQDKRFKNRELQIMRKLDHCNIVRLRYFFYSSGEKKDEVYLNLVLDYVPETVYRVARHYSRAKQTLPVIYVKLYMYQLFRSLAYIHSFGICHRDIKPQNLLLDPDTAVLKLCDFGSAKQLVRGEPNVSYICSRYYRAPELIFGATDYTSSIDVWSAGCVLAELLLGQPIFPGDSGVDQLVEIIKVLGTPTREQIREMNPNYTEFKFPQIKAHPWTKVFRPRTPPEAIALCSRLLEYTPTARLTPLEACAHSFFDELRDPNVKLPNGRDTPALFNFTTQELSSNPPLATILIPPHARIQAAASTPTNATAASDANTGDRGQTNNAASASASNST

Row | IC50 [1] [nM] | IC50 [2] [nM] | IC50 [3] [nM] | IC50 [4] [nM] | IC50 ([3]; 10 μM ATP or Km ATP) [nM] | Structure (SMILES)
1 | < 1000 | < 1000 | < 1000 |  |  | NC(=O)[C@@H]1CC[C@@H](Nc2ncc3nnn(-c4ccc5c(c4)OCCO5)c3n2)C1 [A156, (1R,3R)-3-[3-(2,3-dihydro-benzo[1,4]dioxin-6-yl)-3H-[1,2,3]triazolo[4,5-d]pyrimidin-5-ylamino]-cyclopentanecarboxylic acid amide]
2 | < 1000 | < 1000 | < 1000 |  |  | CCOc1ccc(-n2nnc3cnc(N[C@@H]4CC[C@@H](C(N)=O)C4)nc32)cn1 [A179, (1R,3R)-3-[3-(6-ethoxy-pyridin-3-yl)-3H-[1,2,3]triazolo[4,5-d]pyrimidin-5-ylamino]-cyclopentanecarboxylic acid amide]
3 | < 1000 | < 1000 | < 1000 |  |  | COc1ccc(-n2nnc3cnc(N[C@@H]4CCN(c5cnn(C)c5)C4)nc32)cc1 [A115, [3-(4-methoxy-phenyl)-3H-[1,2,3]triazolo[4,5-d]pyrimidin-5-yl]-[(R)-1-(1-methyl-1H-pyrazol-4-yl)-pyrrolidin-3-yl]-amine]
4 | < 1000 | < 1000 | < 1000 |  |  | CCOc1ccc(-n2nnc3cnc(N[C@@H]4CC[C@@H](C(N)=O)C4)nc32)nc1 [A178, (1R,3R)-3-[3-(5-ethoxy-pyridin-2-yl)-3H-[1,2,3]triazolo[4,5-d]pyrimidin-5-ylamino]-cyclopentanecarboxylic acid amide]
5 | < 1000 | < 1000 | < 1000 |  |  | NC(=O)[C@@H]1CC[C@@H](Nc2ncc3nnn(-c4ccc(N5CCCC5)cc4)c3n2)C1 [A146, (1R,3R)-3-[3-(4-pyrrolidin-1-yl-phenyl)-3H-[1,2,3]triazolo[4,5-d]pyrimidin-5-ylamino]-cyclopentanecarboxylic acid amide]
6 | < 1000 | < 1000 | < 1000 |  |  | CCOCCn1cc(-c2ccc(-n3nnc4cnc(N[C@@H]5CC[C@@H](C(N)=O)C5)nc43)cn2)cn1 [A229, (1R,3R)-3-(3-{6-[1-(2-ethoxy-ethyl)-1H-pyrazol-4-yl]-pyridin-3-yl}-3H-[1,2,3]triazolo[4,5-d]pyrimidin-5-ylamino)-cyclopentanecarboxylic acid amide]
7 | < 1000 | < 1000 | < 1000 |  |  | NC(=O)[C@@H]1CC[C@@H](Nc2ncc3nnn(-c4ccc5ncccc5n4)c3n2)C1 [A194, (1R,3R)-3-(3-[1,5]naphthyridin-2-yl-3H-[1,2,3]triazolo[4,5-d]pyrimidin-5-ylamino)-cyclopentanecarboxylic acid amide]
8 | < 1000 | < 1000 | < 1000 |  |  | COCCn1cc(-c2cccc(-n3nnc4cnc(N[C@@H]5CC[C@@H](C(N)=O)C5)nc43)c2)cn1 [A222, (1R,3R)-3-(3-{3-[1-(2-methoxy-ethyl)-1H-pyrazol-4-yl]-phenyl}-3H-[1,2,3]triazolo[4,5-d]pyrimidin-5-ylamino)-cyclopentanecarboxylic acid amide]
9 | < 1000 | < 1000 | < 1000 |  |  | CCOc1ccc(-n2nnc3cnc(N[C@@H]4CC[C@@H](C(=O)NS(C)(=O)=O)C4)nc32)cc1 [A286, N-{(1R,3R)-3-[3-(4-ethoxy-phenyl)-3H-[1,2,3]triazolo[4,5-d]-pyrimidin-5-ylamino]-cyclopentanecarbonyl}-methanesulfonamide]
10 |  | < 1000 | < 1000 | 5000 to 10000 |  | NC(=O)[C@@H]1CC[C@@H](Nc2ncc3nnn(-c4ccc5ncccc5c4)c3n2)C1 [A190, (1R,3R)-3-(3-quinolin-6-yl-3H-[1,2,3]triazolo[4,5-d]pyrimidin-5-ylamino)-cyclopentanecarboxylic acid amide]
11 |  | < 1000 | < 1000 | 1000 to 5000 |  | Cn1cc(-c2ccc(-n3nnc4cnc(N[C@H]5CC[C@H](N)CC5)nc43)cc2)cn1 [A129, N-{3-[4-(1-methyl-1H-pyrazol-4-yl)-phenyl]-3H-[1,2,3]triazolo[4,5-d]pyrimidin-5-yl}-trans-cyclohexane-1,4-diamine]
12 |  | < 1000 | < 1000 | 5000 to 10000 |  | NC1CC[C@@H](Nc2ncc3nnn(-c4ccc(-c5cnn(CCO)c5)cc4)c3n2)C1 (stereo in doubt) [A257, 2-(4-{4-[5-((1R,3S)-3-amino-cyclopentylamino)-[1,2,3]triazolo[4,5-d]pyrimidin-3-yl]-phenyl}-pyrazol-1-yl)-ethanol]
13 |  | < 1000 | < 1000 | 1000 to 5000 |  | N#CCCn1cc(-c2ccc(-n3nnc4cnc(N[C@@H]5CC[C@@H](O)C5)nc43)cc2)cn1 (relative stereo) [A214, 3-(4-{4-[5-(trans-3-hydroxy-cyclopentylamino)-[1,2,3]triazolo[4,5-d]pyrimidin-3-yl]-phenyl}-pyrazol-1-yl)-propionitrile]
14 |  | < 1000 | < 1000 | 1000 to 5000 |  | Cc1ccc2cc(-n3nnc4cnc(N[C@@H]5CC[C@@H](O)C5)nc43)ccc2n1 (relative stereo) [A202, (trans)-3-[3-(2-methyl-quinolin-6-yl)-3H-[1,2,3]triazolo[4,5-d]pyrimidin-5-ylamino]-cyclopentanol]
15 |  | < 1000 | < 1000 | 1000 to 5000 |  | COc1ccc(-n2nnc3cnc(N[C@@H]4CC[C@H](CO)C4)nc32)cc1 [A112, {(1S,3R)-3-[3-(4-methoxy-phenyl)-3H-[1,2,3]triazolo[4,5-d]pyrimidin-5-ylamino]-cyclopentyl}-methanol]
16 |  | < 1000 | < 1000 | 1000 to 5000 |  | NC(=O)[C@H]1CC[C@@H](Nc2ncc3nnn(-c4ccc(-c5cnn(CCN6CCCC6)c5)cc4)c3n2)C1 [A216, (1S,3R)-3-(3-{4-[1-(2-pyrrolidin-1-yl-ethyl)-1H-pyrazol-4-yl]-phenyl}-3H-[1,2,3]triazolo[4,5-d]pyrimidin-5-ylamino)-cyclopentanecarboxylic acid amide]
17 |  | < 1000 | < 1000 | 5000 to 10000 |  | Cc1nc2ccc(-n3nnc4cnc(N[C@@H]5CC[C@H](C(N)=O)C5)nc43)cc2o1 [A141, (1S,3R)-3-[3-(2-methyl-benzoxazol-6-yl)-3H-[1,2,3]triazolo[4,5-d]pyrimidin-5-ylamino]-cyclopentanecarboxylic acid amide]
18 |  | < 1000 | < 1000 | 5000 to 10000 |  | CN(C)CCC(=O)N1CC[C@@H](Nc2ncc3nnn(-c4ccc(-c5cnn(C)c5)cc4)c3n2)C1 [A130, 3-dimethylamino-1-((R)-3-{3-[4-(1-methyl-1H-pyrazol-4-yl)-phenyl]-3H-[1,2,3]triazolo[4,5-d]pyrimidin-5-ylamino}-pyrrolidin-1-yl)-propan-1-one]
19 |  | < 1000 |  | 1000 to 5000 | < 1000 | NC(=O)[C@@H]1CC[C@@H](Nc2ncc3nnn(-c4ccc(-c5cnn(CCO)c5)cc4)c3n2)C1 [A255, (1R,3R)-3-(3-{4-[1-(2-hydroxy-ethyl)-1H-pyrazol-4-yl]-phenyl}-3H-[1,2,3]triazolo[4,5-d]pyridimdin-5-ylamino)-cyclopentanecarboxylic acid amide]
20 |  | < 1000 | < 1000 | 1000 to 5000 |  | N[C@H]1CC[C@H](Nc2ncc3nnn(-c4ccc(OC5CCOCC5)cc4)c3n2)CC1 [A127, N-{3-[4-(tetrahydro-pyran-4-yloxy)-phenyl]-3H-[1,2,3]triazolo[4,5-d]pyrimidin-5-yl}-trans-cyclohexane-1,4-diamine]

From patent US9855268B2, “Triazolo[4,5-d]pyrimidine derivatives” (Merck Patent GmbH, priority 2013, dated 2018)
